Assay results taken from ChEMBL document CHEMBL3885861, “Open TG-GATES”.

Organism: Rattus norvegicus
Assay: Open TG-GATES - Regimen: Daily Repeat
Type: toxicity, organism-based, Sprague-Dawley
Design: regimen Daily Repeat, gender Male, age 6 weeks
Settings: in vivo, po, 10 mg/kg, […], route gavage, dose level Low; for KIDNEY_L / KIDNEY_R / KIDNEY_TOTAL: tissue Kidney; for LIVER: tissue Liver; for A/G / ALP / ALT / AST / BUN / CRE / Ca / Cl / DBIL / GLC / IP / K / LDH / Na / PL / RALB / TBIL / TC / TG / TP / gamma-GTP: tissue Plasma

**Q.** Which results are given for `Nc1ccc(Cc2ccc(N)cc2)cc1`?
**A.** Lym (tissue Blood, time 28 day): 77.6%; MCH (tissue Blood, time 28 day): 19.6 pg; MCHC (tissue Blood, time 28 day): 35.1%; MCV (tissue Blood, time 28 day): 55.7 fL; Mono (tissue Blood, time 28 day): 1.4%; Neu (tissue Blood, time 28 day): 19.2%; PT (tissue Blood, time 28 day): 11.9 s; Plat (tissue Blood, time 28 day): 114.6 x10_4/uL; RBC (tissue Blood, time 28 day): 750.8 x10_4/ul; Ret (tissue Blood, time 28 day): 2.7%; WBC (tissue Blood, time 28 day): 114 x10_2/uL; KIDNEY_L (time 7 day): 1.1 g; KIDNEY_R (time 7 day): 1.1 g; KIDNEY_TOTAL (time 7 day): 2.2 g; KIDNEY_L (time 14 day): 1.2 g; KIDNEY_R (time 14 day): 1.2 g; KIDNEY_TOTAL (time 14 day): 2.3 g; KIDNEY_L (time 28 day): 1.4 g; KIDNEY_R (time 28 day): 1.4 g; KIDNEY_TOTAL (time 28 day): 2.8 g; LIVER (time 7 day): 13 g; LIVER (time 14 day): 15.9 g; LIVER (time 28 day): 17.9 g; A/G (time 7 day): 0.8; ALP (time 7 day): 1642 IU/L; ALT (time 7 day): 40.8 IU/L; AST (time 7 day): 65 IU/L; BUN (time 7 day): 16.8 mg/dL; CRE (time 7 day): 0.2 mg/dL; Ca (time 7 day): 11.4 mg/dL; Cl (time 7 day): 104.6 meq/L; DBIL (time 7 day): 0.026 mg/dL; GLC (time 7 day): 182 mg/dL; IP (time 7 day): 7.2 mg/dL; K (time 7 day): 4.2 meq/L; LDH (time 7 day): 60.6 IU/L; Na (time 7 day): 143.6 meq/L; PL (time 7 day): 143.8 mg/dL; RALB (time 7 day): 2.7 g/dL; TBIL (time 7 day): 0.07 mg/dL; TC (time 7 day): 75.4 mg/dL; TG (time 7 day): 105.6 mg/dL; TP (time 7 day): 6 g/dL; gamma-GTP (time 7 day): 1.4 IU/L; A/G (time 14 day): 0.8; ALP (time 14 day): 1500.2 IU/L; ALT (time 14 day): 38.8 IU/L; AST (time 14 day): 64.6 IU/L; BUN (time 14 day): 17 mg/dL; CRE (time 14 day): 0.2 mg/dL; Ca (time 14 day): 11.1 mg/dL; Cl (time 14 day): 104.8 meq/L; DBIL (time 14 day): 0.02 mg/dL; GLC (time 14 day): 174.4 mg/dL; IP (time 14 day): 7.1 mg/dL; K (time 14 day): 3.8 meq/L; LDH (time 14 day): 72.4 IU/L; Na (time 14 day): 143.2 meq/L; PL (time 14 day): 146.4 mg/dL; RALB (time 14 day): 2.7 g/dL; TBIL (time 14 day): 0.05 mg/dL; TC (time 14 day): 70.4 mg/dL; TG (time 14 day): 145 mg/dL; TP (time 14 day): 6.2 g/dL; gamma-GTP (time 14 day): 1 IU/L; A/G (time 28 day): 0.8; ALP (time 28 day): 1150 IU/L; ALT (time 28 day): 34.2 IU/L; AST (time 28 day): 57.6 IU/L; BUN (time 28 day): 16 mg/dL; CRE (time 28 day): 0.2 mg/dL; Ca (time 28 day): 10.9 mg/dL; Cl (time 28 day): 105.4 meq/L; DBIL (time 28 day): 0.02 mg/dL; GLC (time 28 day): 177.6 mg/dL; IP (time 28 day): 6.5 mg/dL; K (time 28 day): 4 meq/L; LDH (time 28 day): 64 IU/L; Na (time 28 day): 144.4 meq/L; PL (time 28 day): 133 mg/dL; RALB (time 28 day): 2.7 g/dL; TBIL (time 28 day): 0.056 mg/dL; TC (time 28 day): 67 mg/dL; TG (time 28 day): 112.4 mg/dL; TP (time 28 day): 6.4 g/dL; gamma-GTP (time 28 day): 1 IU/L
